# From patent publication US20230047027A1, “COMPOSITIONS AND METHODS USING CANNABINOID COMPOUNDS FOR REGULATING GASTRIC ACID SECRETION TO TREAT GASTROESOPHAGEAL REFLUX DISEASE AND RELATED CONDITIONS” (Demetrix, Inc., priority 2021, published 2023)
# Read-outs that look alike come from different tables or passages of the source.
# Experiments:
# H2 receptor [1] = biological target: T1, H2 receptor (Homo sapiens, UniProt P25021); assay: IC50 antagonist activity screen (PathHunter β-Arrestin GPCR assay); format: cell-based; details: for Emax / Maximum inhibition (%): maximum inhibition (antagonism) from IC50 curves, about 60% or higher = strong activity; for Emax: read-out: IC50 (Inhibition - Max Response)
# Description: It has additionally been discovered that the alkyl side chain length of cannabinoid compounds can influence the effect the cannabinoid compounds have on the GPCR receptors. For example, it has been discovered that increasing the length of the alkyl side chain, generally increases the antagonism of CBG and CBD to the H2 receptor. […] The RC50 value indicates the value at which the cannabinoid reached the reference compound's 50% effective concentration.
# (§1) A single assay was run. In each run, PathHunter® cell lines were removed from a freezer stock and seeded at a volume of 20 μL into white walled, 384-well microplates and incubated at 37° C. Each cell was pre-incubated with the cannabinoid compound followed by an agonist challenge at the EC80 concentration. […] were then diluted to generate a 5x sample in assay buffer. 5 μL of the 5x sample was then added to cells and incubated at 37° C. for 30 minutes. Finally, 5 μL of 6x EC80 agonist in assay buffer were added to the cells and incubated at 37° C. for 90 minutes or 180 minutes. The assay signal was generated through addition of 12.5 μL or 15 μL (50% V/V) of a detection reagent cocktail followed by a one hour incubation time at room temperature. Microplates were read following signal generation with a PerkinElmer Envision™ (PerkinElmer Inc., Waltham, Mass.) for chemiluminescent signal detection. Reactivity was analyzed using the CBIS data analysis suite (ChemInnovation, CA) where RLU refers to the raw measured values. The percent inhibition was calculated using the formula: % Inhibition=100%*(1−mean RLU of test sample−mean RLU of control)/(mean RLU of EC80 control−mean RLU of vehicle control).
# Based on the results of the GPCR reactivity screen, and IC50 antagonist activity screen was run against the H2 receptor. The IC50 antagonist activity screen was run for each of CBG, CBC, CBL, CBN, CBDV, CBD, CBD-C1, CBD-C2, (+)-CBD, CBG-C6, CBG-C7, CBG-C9, CBD-C6, CBD-C7, CBD-C9, CBGA-C6, CBGA-C7, and CBGA-C9. IC50 curves were measured using the same GPCR assay, PathHunter® β-Arrestin from Eurofins DiscoverX Products (Fremont, Calif.), as the GPCR reactivity screen. As used herein, strong activity against a receptor is considered a maximum activity of about 60% or higher. Higher results for antagonism against the H2 receptor are considered better.
# H2 receptor [2] = biological target: T1, H2 receptor; assay: GPCR reactivity screen (PathHunter β-Arrestin GPCR assay), antagonist mode; format: cell-based; details: for H2 Receptor Antagonist Activity (percent inhibition): single assay run, pre-incubation with cannabinoid, then agonist challenge at EC80, test concentration not given, about 60% or higher = strong activity; for H2 antagonist activity in the GPCR reactivity screen (in words): summary of Table 1; for effect on sensitivity to histamine (in words): Table 1, negative inhibition
# Procedure: To evaluate the H2 antagonist activity of the cannabinoid compounds, a GPCR reactivity assay was performed. The evaluated cannabinoid compounds were: CBN, THCV, CBDVA, CBG, CBL, CBC, CBDV, CBDA, CBD, CBGA, (+)-CBD, CBG-C4, CBD-C1, CBD-C2, CBGV, CBGA-C4, CBGVA, CBCA, and CBLA. Tiotidine was used as the control.
# as §1
# The percent inhibition is depicted. As used herein, strong activity against a receptor is considered a percent activity of about 60% or higher. Higher results for antagonism against the H2 receptor are considered better.
# [3] = value at which the cannabinoid reached the reference compound's (tiotidine) 50% effective concentration, H2 receptor antagonist mode, read-out: RC50 (the source's name)
# T1 sequence (P25021 whole entry): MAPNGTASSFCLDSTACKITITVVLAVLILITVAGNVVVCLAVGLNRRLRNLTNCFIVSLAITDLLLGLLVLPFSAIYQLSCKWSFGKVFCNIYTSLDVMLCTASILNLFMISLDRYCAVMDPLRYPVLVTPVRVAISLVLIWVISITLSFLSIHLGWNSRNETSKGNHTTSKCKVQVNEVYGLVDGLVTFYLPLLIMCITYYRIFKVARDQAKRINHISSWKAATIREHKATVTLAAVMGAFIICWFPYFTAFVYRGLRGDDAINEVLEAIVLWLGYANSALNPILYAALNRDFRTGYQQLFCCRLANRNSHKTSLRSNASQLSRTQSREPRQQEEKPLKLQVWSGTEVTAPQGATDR
Compound,H2 Receptor Antagonist Activity (percent inhibition) (H2 receptor [2]),H2 antagonist activity in the GPCR reactivity screen (in words) (H2 receptor [2]),Maximum inhibition (%) (H2 receptor [1]),IC50 (H2 receptor [1]; [3]),also measured
"CCCCCc1cc(O)c2c(c1)OC(C)(CCC=C(C)C)C=C2 (stereo not shown) [CBC, cannabichromene]",117%,–,–,–,IC50 (H2 receptor [1]): 2.63 µM; Emax (H2 receptor [1]): 62%
"CCCCCc1cc2c(c(O)c1C(=O)O)C=CC(C)(CCC=C(C)C)O2 (stereo not shown) [CBCA, cannabichromenic acid]",12%,did not demonstrate H2 antagonist activity,–,–,–
"C=C(C)[C@@H]1CCC(C)=C[C@H]1c1c(O)cc(CCCCC)cc1O [CBD, cannabidol]",–,–,64,0.83 µM,–
"C=C(C)[C@@H]1CCC(C)=C[C@H]1c1c(O)cc(C)cc1O [CBD-C1, cannabidiorcol]",47%,did not demonstrate H2 antagonist activity,53,> 10 µM,–
"C=C(C)[C@@H]1CCC(C)=C[C@H]1c1c(O)cc(CC)cc1O [CBD-C2, cannabidol-C2]",–,–,71,5.22 µM,–
"C=C(C)[C@@H]1CCC(C)=C[C@H]1c1c(O)cc(CCCCCC)cc1O [CBD-C6, cannabidol hexyl]",–,–,80,0.46 µM,–
"C=C(C)[C@@H]1CCC(C)=C[C@H]1c1c(O)cc(CCCCCCC)cc1O [CBD-C7, cannabidol heptyl]",–,–,74,0.38 µM,–
"C=C(C)[C@@H]1CCC(C)=C[C@H]1c1c(O)cc(CCCCCCCCC)cc1O [CBD-C9, cannabidol nonyl]",–,–,56,0.1 µM,–
"C=C(C)[C@@H]1CCC(C)=C[C@H]1c1c(O)cc(CCCCC)c(C(=O)O)c1O [CBDA, cannabidiolic acid]",4%,did not demonstrate H2 antagonist activity,–,–,–
"C=C(C)[C@@H]1CCC(C)=C[C@H]1c1c(O)cc(CCC)cc1O [CBDV, cannabidivarin]",–,–,–,4.5 µM,Emax (H2 receptor [1]): 75%
"C=C(C)[C@@H]1CCC(C)=C[C@H]1c1c(O)cc(CCC)c(C(=O)O)c1O [CBDVA, cannabidivarinic acid]",12%,did not demonstrate H2 antagonist activity,–,–,–
"CCCCCc1cc(O)c(C/C=C(\C)CCC=C(C)C)c(O)c1 [CBG, cannabigerol]",–,–,–,> 10 µM,Emax (H2 receptor [1]): 21%
"CCCCc1cc(O)c(CC=C(C)CCC=C(C)C)c(O)c1 [CBG-C4, cannabigerol butyl]",−62%,did not demonstrate H2 antagonist activity,–,–,effect on sensitivity to histamine (in words) (H2 receptor [2]): increasing sensitivity to histamine
"CCCCCCc1cc(O)c(C/C=C(\C)CCC=C(C)C)c(O)c1 [CBG-C6, cannabigerol hexyl]",–,–,84,> 10 µM,–
"CCCCCCCc1cc(O)c(C/C=C(\C)CCC=C(C)C)c(O)c1 [CBG-C7, cannabigerol heptyl]",–,–,93,3.39 µM,–
"CCCCCCCCCc1cc(O)c(C/C=C(\C)CCC=C(C)C)c(O)c1 [CBG-C9, cannabigerol nonyl]",–,–,96,2.89 µM,–
"CCCCCc1cc(O)c(C/C=C(\C)CCC=C(C)C)c(O)c1C(=O)O [CBGA, cannabigerolic acid]",−3%,did not demonstrate H2 antagonist activity,–,–,effect on sensitivity to histamine (in words) (H2 receptor [2]): increasing sensitivity to histamine
"CCCCc1cc(O)c(C/C=C(\C)CCC=C(C)C)c(O)c1C(=O)O [CBGA-C4, cannabigerolic acid butyl]",16%,did not demonstrate H2 antagonist activity,–,–,–
"CCCCCCc1cc(O)c(C/C=C(\C)CCC=C(C)C)c(O)c1C(=O)O [CBGA-C6, cannabigerolic acid hexyl]",–,–,9,> 10 µM,–
"CCCCCCCc1cc(O)c(C/C=C(\C)CCC=C(C)C)c(O)c1C(=O)O [CBGA-C7, cannabigerolic acid heptyl]",–,–,17,> 10 µM,–
"CCCCCCCCCc1cc(O)c(C/C=C(\C)CCC=C(C)C)c(O)c1C(=O)O [CBGA-C9, cannabigerolic acid nonyl]",–,–,11,> 10 µM,–
"CCCc1cc(O)c(C/C=C(\C)CCC=C(C)C)c(O)c1 [CBGV, cannabigerivarin]",10%,did not demonstrate H2 antagonist activity,–,–,–
"CCCc1cc(O)c(C/C=C(\C)CCC=C(C)C)c(O)c1C(=O)O [CBGVA, cannabigerovarinic acid]",2%,did not demonstrate H2 antagonist activity,–,–,–
"CCCCCc1cc(O)c2c(c1)OC1(C)CCC3C1C2C3(C)C (stereo not shown) [CBL, cannabicyclol]",–,–,–,–,IC50 (H2 receptor [1]): 1.17 µM; Emax (H2 receptor [1]): 64%
"CCCCCc1cc2c(c(O)c1C(=O)O)C1C3C(CCC3(C)O2)C1(C)C (stereo not shown) [CBLA, cannabicyclolic acid]",11%,did not demonstrate H2 antagonist activity,–,–,–
"CCCCCc1cc(O)c2c(c1)OC(C)(C)c1ccc(C)cc1-2 [CBN, cannabinol]",–,–,–,–,IC50 (H2 receptor [1]): > 10 µM; Emax (H2 receptor [1]): 12%
"CCCc1cc(O)c2c(c1)OC(C)(C)[C@@H]1CCC(C)=C[C@@H]21 [THCV, tetrahydrocannabivarin]",−22%,did not demonstrate H2 antagonist activity,–,–,effect on sensitivity to histamine (in words) (H2 receptor [2]): increasing sensitivity to histamine
(+)-cannabidiol [(+)-CBD],45%,did not demonstrate H2 antagonist activity,42,> 10 µM,–
